The text below walks through data of US20060019932A1, “Treatment of rheumatoid arthritis by inhibition of pde4” (priority 2002, published 2006).

Read-outs that look alike come from different tables or passages of the source.

Test [1] addresses T1, human recombinant phosphodiesterase IVa (met-248) (Homo sapiens, UniProt P27815).
T1 construct: human recombinant phosphodiesterase IVa (met-248); GST; made in house; host or cells: baculovirus/Sf-9
Put plainly: SPA based PDE activity assay. Format: biochemical. Here is the method:
Compounds which inhibit the hydrolysis of cAMP to AMP by the type-IV cAMP-specific phosphodiesterases were screened in a 96-well plate format as follows:
In a 96 well-plate at 30° C. the test compound was added (dissolved in 2 μL DMSO), 188 μL of substrate buffer containing [2,8-^3H] adenosine 3′,5′-cyclic phosphate (cAMP, 100 nM to 50 μM), 10 mM MgCl2, 1 mM EDTA, 50 mM Tris, pH 7.5. The reaction was initiated by the addition of human recombinant PDE4 (the amount was controlled so that ˜10% product was formed in 10 min.). The reaction was stopped after 10 min. by the addition of 1 mg of PDE-SPA beads (Amersham Pharmacia Biotech, Inc., Piscataway, N.J.). The product AMP generated was quantified on a Wallac Microbeta® 96-well plate counter (EG&G Wallac Co., Gaithersburg, Md.). The signal in the absence of enzyme was defined as the background. 100% activity was defined as the signal detected in the presence of enzyme and DMSO with the background subtracted. Percentage of inhibition was calculated accordingly. IC50 value was approximated with a non-linear regression fit using the standard 4-parameter/multiple binding sites equation from a ten point titration.

Test [2] relates to collagen-induced arthritis in DBA mice. Put plainly: Collagen-induced arthritis in DBA mice, cumulative score. It counts as in vivo. Conditions: FIG. 1, score against days dosed, comparable to indomethacin. From the text: FIG. 1 is a graphical plot of the cumulative score in collagen-induced arthritis in DBA mice plotted against days dosed for vehicle, Roflumilast, Indomethacin, and Example 1.

The next test concerns GM-CSF. Put plainly: Inhibition of LPS or Con A stimulated human whole blood: GM-CSF. It counts as cell-based. Conditions: read-out: Inhibition of LPS or Con A stimulate human whole blood, GM-CSF. The text has this:
(§1) Rheumatoid arthritis (RA) is a systemic autoimmune disease resulting in progressive joint destruction and associated pain. Three major contributors to its pathology are joint inflammation, abnormal cellular and humoral responses, and synovial hyperplasia. T-lymphocytes (T-cells) and monocytes are the major cell types recovered from the synovial tissue of RA patients and experimental evidence confirms that pro-inflammatory cytokines produced by these cells are the major contributors to joint pathogenesis. The inventors have analyzed human whole blood for the production of various cytokines including Th1 and Th2 cytokines following stimulation with lipoplysaccharide (LPS) and Concanavalin A (ConA) in the presence or absence of PDE4 inhibitors. […] TNF-α sequestrants alone have shown clinical efficacy in RA. Thus, if sufficient levels of inhibition are achieved, PDE4 inhibitor-mediated TNF-α suppression would have efficacy in RA.
(§2) Inhibition of various Th1 and monocyte derived cytokines which may play a role in human rheumatoid arthritis.

In another test the test system is IL-12. Put plainly: Inhibition of LPS or Con A stimulated human whole blood: IL-12. As to conditions: read-out: Inhibition of LPS or Con A stimulate human whole blood, IL-12. Format: cell-based.
Source text: as §1, §2

A further test deals with IFNγ. Kind of test: Inhibition of LPS or Con A stimulated human whole blood: IFNγ. It counts as cell-based. Conditions: read-out: Inhibition of LPS or Con A stimulate human whole blood, IFNγ.
Source text: as §1, §2

Another test deals with IL-2. Put plainly: Inhibition of LPS or Con A stimulated human whole blood: IL-2. Conditions: read-out: Inhibition of LPS or Con A stimulate human whole blood, IL-2. Format: cell-based.
Source text: as §1, §2

For another test, the system named is TNF-α. Put plainly: Inhibition of LPS or Con A stimulated human whole blood: TNF-α. It counts as cell-based. Conditions: read-out: Inhibition of LPS or Con A stimulate human whole blood, TNF-α.
Source text: as §1
Whole blood provides a protein and cell-rich milieu appropriate for the study of biochemical efficacy of anti-inflammatory compounds such as PDE4-selective inhibitors. […] Upon stimulation with LPS, activated monocytes express and secrete TNF-α up to 8 hours and plasma levels remain stable for 24 hours. […]

T1 sequence (P27815 248-886): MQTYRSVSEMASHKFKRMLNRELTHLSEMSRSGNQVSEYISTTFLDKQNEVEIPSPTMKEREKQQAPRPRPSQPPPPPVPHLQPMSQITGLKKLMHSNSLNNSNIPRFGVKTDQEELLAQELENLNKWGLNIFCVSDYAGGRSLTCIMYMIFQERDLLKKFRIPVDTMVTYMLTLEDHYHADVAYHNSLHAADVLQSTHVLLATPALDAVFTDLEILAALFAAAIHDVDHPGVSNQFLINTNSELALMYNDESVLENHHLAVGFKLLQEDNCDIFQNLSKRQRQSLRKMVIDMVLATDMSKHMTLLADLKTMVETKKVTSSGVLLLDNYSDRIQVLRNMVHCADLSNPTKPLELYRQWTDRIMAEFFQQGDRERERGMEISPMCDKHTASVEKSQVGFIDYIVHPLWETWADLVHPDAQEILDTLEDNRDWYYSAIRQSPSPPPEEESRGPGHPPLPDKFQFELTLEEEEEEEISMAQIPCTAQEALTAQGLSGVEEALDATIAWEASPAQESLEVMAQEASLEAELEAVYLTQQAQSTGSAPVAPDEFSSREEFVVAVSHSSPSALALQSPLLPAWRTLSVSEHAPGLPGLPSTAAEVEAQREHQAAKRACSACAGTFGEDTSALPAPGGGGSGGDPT

For `CC(C)NC(=O)/C(=C/c1cccc(-c2cc(C(C)(C)C#N)cc3cccnc23)c1)c1ccc(S(C)(=O)=O)cc1` [Example 1], the IC50 in test [1] (100 nM cAMP, purified GST fusion protein of human recombinant PDE IVa (met-248), baculovirus/Sf-9, read-out: IC50) stood at 0.76 nM. The “cumulative score in collagen-induced arthritis” value in test [2] was “low cumulative scores”.

With `Cc1c[n+]([O-])ccc1CC(c1ccc(C(O)(C(F)(F)F)C(F)(F)F)cc1)c1ccc(OC(F)F)c(OC(F)F)c1` (stereo not drawn) [Example 2], the IC50 worked out at 70 nM in the test on GM-CSF; 1.31 nM in test [1]; 130 nM with IL-12; 50 nM in the test on IFNγ; 300 nM with IL-2; 50 nM with TNF-α.

For `O=C(Nc1c(Cl)cncc1Cl)c1ccc(OC(F)F)c(OCC2CC2)c1` [Roflumilast, N-(3,5-dichloropyrid-4-yl)-3-cyclopropylmethoxy-4-difluoromethoxybenzamide, reference compound], the “cumulative score in collagen-induced arthritis” value in test [2] was “low cumulative scores”.
